Structures can show the parent of a compound that is named as a salt.
What was measured:
NADPH-oxidase = molecular target: T1, NADPH-oxidase (Homo sapiens, UniProt P04839); experiment: Oxidase Inhibition Assay (PMA-stimulated superoxide-mediated reduction of Cytochrome c, absorbance at 550 nm); type: cell-based; details: for IC50: human neutrophils, 0.5 μM PMA, Cytochrome c reduction at 550 nm
T1 construct: endogenous in cells; host or cells: human neutrophils isolated from the buffy coat of one unit of blood
T1 sequence (P04839 1-570): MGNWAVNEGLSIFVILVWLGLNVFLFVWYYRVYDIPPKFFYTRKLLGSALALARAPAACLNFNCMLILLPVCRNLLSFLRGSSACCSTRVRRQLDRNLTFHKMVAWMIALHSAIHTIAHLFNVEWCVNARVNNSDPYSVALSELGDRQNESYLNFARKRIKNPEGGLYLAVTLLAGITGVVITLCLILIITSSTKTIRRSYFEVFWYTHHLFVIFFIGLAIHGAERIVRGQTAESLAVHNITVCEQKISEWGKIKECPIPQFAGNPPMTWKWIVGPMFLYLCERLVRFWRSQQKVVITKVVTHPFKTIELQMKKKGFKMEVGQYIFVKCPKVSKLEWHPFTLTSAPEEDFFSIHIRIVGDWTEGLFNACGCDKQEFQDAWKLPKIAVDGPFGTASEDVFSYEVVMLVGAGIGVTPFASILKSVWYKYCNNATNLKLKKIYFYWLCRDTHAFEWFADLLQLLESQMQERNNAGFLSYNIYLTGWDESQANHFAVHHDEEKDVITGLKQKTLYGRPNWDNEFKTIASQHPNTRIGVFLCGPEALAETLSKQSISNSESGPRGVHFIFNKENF
T1 sequence (P13498 1-195 partner): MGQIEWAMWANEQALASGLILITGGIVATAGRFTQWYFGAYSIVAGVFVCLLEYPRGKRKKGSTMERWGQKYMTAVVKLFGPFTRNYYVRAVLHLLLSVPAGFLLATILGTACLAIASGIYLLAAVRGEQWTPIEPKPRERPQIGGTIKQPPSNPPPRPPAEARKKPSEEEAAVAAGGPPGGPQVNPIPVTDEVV
Description: Whole cells (human neutrophils) are incubated with a pro-inflammatory agonist phorbol myristate acetate (PMA) in the presence or absence of test compound to measure the superoxide-mediated reduction of Cytochrome c at 550 nm. Inhibition of the oxidase is determined by a decreased absorbance at 550 nm, in response to test compound, relative to the absorbance seen with a vehicle control.
The buffy coat from one unit of blood is split evenly into four 50 mL tubes. To each tube 30 mL 3% Dextran (in 0.9% NaCl) is added and the tubes are inverted to mix. Tubes are allowed to sit undisturbed for 25 minutes. The resulting supernatant is recovered into four fresh tubes and centrifuged for 10 minutes at 600×g, 4° C. The supernatant is discarded and pellets are resuspended in 35 mL 0.9% saline. 10 mL Ficoll-Paque PLUS (Pharmacia Biotech AB) is layered beneath the cell suspension and centrifuged at 600×g for 40 minutes at room temperature. The supernatant is again discarded and tubes are tapped to loosen the resulting pellets. 20 mL 0.2% ice cold saline is added for 30 seconds followed by 20 mL 1.6% ice cold saline to lyse the remaining erythrocytes in the pellets. The pellets are centrifuged for 10 minutes at 600×g, 4° C., and the supernatant is discarded. The neutrophil pellets are resuspended in HBSS-glucose buffer (1 mg/mL), adding 2.5 mL to each tube for a total volume of 10 mL. The cell suspension is then counted on a hemocytometer.
The cell suspension is diluted to a concentration of 5×10^6/mL in HBSS-glucose and treated with 1 μg/mL Cytochalasin B (5 mg/mL DMSO) for 10 minutes at 37° C. in a shaking water bath. Cells are diluted to 6×10^5 cells/mL in 92 μM Cytochrome c for a final concentration of 5×10^4 cells/well.
The NADPH-oxidase assay is run on a Biomek 2000 workstation. The workstation adds 2.5 μl compound per well from source plates plus 12.5 μL per well 4 μM PMA (agonist). This volume is brought up to 100 μL total per well in the assay plates upon the addition of the prepared cells (85 μL). The final concentration of drug is 25 μM and PMA is 0.5 μM under these conditions.
The QC curve is a dose-responsive curve (from about 31.25 nM to about 4000 nM) for competitive binding against a known oxidase inhibitor such as DPI (diphenylene iodonium chloride). The following format was used for each compound tested:
The plates are incubated for 1 hour at 37° C. without CO2. The plates are then incubated at room temperature for 30 minutes and the absorbance is read at 550 nm.

ROS = details: human patients with rheumatoid arthritis and osteoarthritis, pharmacological doses; cited from earlier work
[1] = tested on: mice with potassium peroxochromate arthritis; details: cited from earlier work

Question: Which IC50 (NADPH-oxidase) does the source give for `Clc1ccc(-c2csc(COc3cccc(CNC4CCCC4)c3)n2)cc1` [Cpd 3, 3-[[4-(4-chlorophenyl)-2-thiazolyl]methoxy]-N-cyclopentyl-benzenemethanamine] here?
Answer: 40 nM

Question: What about the melting point of the same compound?
Answer: 94 to 94.5 °C

Question: Which “reduce levels of ROS” value (ROS) does the source give for `CN1C(C(=O)Nc2ccccn2)=C(O)c2ccccc2S1(=O)=O` [Piroxicam] here?
Answer: 25%

Question: With `c1ccc2c(c1)[I+]c1ccccc1-2` [DPI, diphenylene iodoniumchloride] as the compound, how does the inhibition at 10 µM (NADPH-oxidase; QC wells G–H, 2.5 μL of 10 μM DPI, at 250 nm (so in the source), agonist added) read?
Answer: ~70%

Question: What about the “inhibition of the arthritis” value ([1]; 10 mmol/kg) of the same compound?
Answer: Complete inhibition

Question: And the inhibited the arthritis ([1]; daily doses of 2.8 μmol/kg)?
Answer: 50%

Question: With `Clc1ccc(-c2csc(COc3cccc(CNC4CC4)c3)n2)cc1` [Cpd 5, 3-[[4-(4-chlorophenyl)-2-thiazolyl]methoxy]-N-cyclopropyl-benzenemethanamine] as the compound, how does the IC50 (NADPH-oxidase) read?
Answer: 3450 nM

Question: What about the melting point of the same compound?
Answer: 80.5 to 81.5 °C

Question: Which melting point does the source give for `CCCCNCc1cccc(OCc2nc(-c3ccc(Cl)cc3)cs2)c1` [Cpd 2, 3-[[4-(4-chlorophenyl)-2-thiazolyl]methoxy]-N-(3-methylpropyl)-benzenemethanamine] here?
Answer: 86 to 88 °C

Question: For `Clc1ccc(-c2csc(COc3cccc(CNCCN4CCOCC4)c3)n2)cc1` [Cpd 7], which IC50 (NADPH-oxidase) is on record?
Answer: 1470 nM

Question: Which results are given for `NCc1cccc(OCc2nc(-c3ccc(Cl)cc3)cs2)c1` [Cpd 11, 3-[[4-(4-chlorophenyl)-2-thiazolyl]methoxy]-benzenemethanamine]?
Answer: IC50 (NADPH-oxidase): 1900 nM; melting point: 117 to 118.5 °C

Question: For “4-(4-chlorophenyl)-2-[[3-[(5-methyl-2-furanyl)methyl]phenoxy]methyl]-thiazole [Cpd 8]”, which IC50 (NADPH-oxidase) is on record?
Answer: 700 nM

Question: For `COc1ccc2[nH]cc(CCNCc3cccc(OCc4nc(-c5ccc(Cl)cc5)cs4)c3)c2c1` [Cpd 9, N-[[3-[[4-(4-chlorophenyl)-2-thiazolyl]methoxy]phenyl]methyl]-5-methoxy-1H-indole-3-ethanamine.HCl], which IC50 (NADPH-oxidase) is on record?
Answer: 300 nM

Question: With `Clc1ccc(-c2csc(COc3ccc(CNC4CCCC4)cc3)n2)cc1` [Cpd 10, 4-[[4-(4-chlorophenyl)-2-thiazolyl]methoxy]-N-cyclopentyl-benzenemethanamine] as the compound, how does the IC50 (NADPH-oxidase) read?
Answer: 700 nM

Question: What about the melting point of the same compound?
Answer: 125.5 to 126.5 °C

Question: For `CCCNCc1ccc(OCc2nc(-c3ccc(Cl)cc3)cs2)cc1` [Cpd 1a, 4-[[4-(4-chlorophenyl)-2-thiazolyl]methoxy]-N-propyl-benzenemethanamine], which melting point is on record?
Answer: 63.5 to 64.5 °C

Question: What does the source list for `CCCNCc1cccc(OCc2nc(-c3ccc(Cl)cc3)cs2)c1` [Cpd 1, 3-[[4-(4-chlorophenyl)-2-thiazolyl]methoxy]-N-propyl-benzenemethanamine]?
Answer: IC50 (NADPH-oxidase): 1650 nM; melting point: 63.5 to 64.5 °C

Question: Which IC50 (NADPH-oxidase) does the source give for `CC(C)CNCc1cccc(OCc2nc(-c3ccc(Cl)cc3)cs2)c1` here?
Answer: 2500 nM

Question: For `CN1CCCC1CNCc1cccc(OCc2nc(-c3ccc(Cl)cc3)cs2)c1` (centres unmarked) [Cpd 6, N-[[3-[[4-(4-chlorophenyl)-2-thiazolyl]methoxy]phenyl]methyl]-1-methyl-2-pyrrolidinemethanamine.(HCl)2], which IC50 (NADPH-oxidase) is on record?
Answer: 10000 nM

Question: Which IC50 (NADPH-oxidase) does the source give for `Clc1ccc(-c2csc(COc3cccc(CNC4CCCCC4)c3)n2)cc1` [Cpd 4, 3-[[4-(4-chlorophenyl)-2-thiazolyl]methoxy]-N-cyclohexyl-benzenemethanamine] here?
Answer: 130 nM

Question: And the melting point?
Answer: 85 to 86 °C

Source: US7179808B2 (Janssen Pharmaceutica N.V., priority 2002, dated 2007)
